Experiment [1] addresses T1, UT-B-facilitated water transport (Mus musculus, UniProt Q8VHL0).
T1 construct: endogenous in cells; host or cells: mouse red blood cells (AQP1-null and wild-type mice, CD1 background)
T1 sequence (Q8VHL0 1-384): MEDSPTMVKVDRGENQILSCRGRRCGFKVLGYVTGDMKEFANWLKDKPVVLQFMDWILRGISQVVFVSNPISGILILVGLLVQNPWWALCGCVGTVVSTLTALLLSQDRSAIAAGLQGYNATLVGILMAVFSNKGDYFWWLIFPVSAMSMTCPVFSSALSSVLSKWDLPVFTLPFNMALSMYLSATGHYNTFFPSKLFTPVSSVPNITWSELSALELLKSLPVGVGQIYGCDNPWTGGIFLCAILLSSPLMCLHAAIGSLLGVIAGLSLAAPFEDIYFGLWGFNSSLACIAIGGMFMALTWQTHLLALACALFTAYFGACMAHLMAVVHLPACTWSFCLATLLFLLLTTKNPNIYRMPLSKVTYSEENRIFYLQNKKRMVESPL
Nature of the experiment: Osmotic water permeability by stopped-flow light scattering, RBCs from AQP1-null mice. The format is cell-based. On the procedure:
RBC urea and water permeabilities were assayed by stopped-flow light scattering using a Hi-Tech Sf-51 instrument (Wiltshire, UK). For measurement of urea permeability, dilutions of whole blood (human or mouse; see Example 1) in PBS (hematocrit: approximately 0.5%) were incubated with test compounds for 5 min and then subjected to a 250-mM inwardly directed gradient of urea. After an initial osmotic shrinking phase, the kinetics of increasing cell volume caused by urea influx were measured as the time-course of 90° scattered light intensity at 530 nm, with increasing cell volume resulting in reduced scattered light intensity. As a positive control, 0.7 mM phloretin was added to the RBC suspension prior to stopped-flow experiments. Measurements of water permeability were carried out similarly, with sucrose (cell-impermeant) used instead of urea to establish a 250-mM osmotic gradient. As a positive control, HgCl2 (0.3 mM) was added to the RBC suspension prior to stopped-flow measurements. […]
This example describes chemical knock-out of UT-B by UT-B inhibitors in RBCs and the effect on UT-B-facilitated water transport. […] Osmotic water permeability was measured by stopped-flow light scattering in RBCs from wild-type and AQP1-null mice as shown in FIG. 8A. […]

The next experiment has as its system RBCs from wild-type mice. Nature of the experiment: Osmotic water permeability by stopped-flow light scattering, RBCs from wild-type mice. The format is cell-based, mouse. On the procedure: (§1) RBC urea and water permeabilities were assayed by stopped-flow light scattering using a Hi-Tech Sf-51 instrument (Wiltshire, UK). For measurement of urea permeability, dilutions of whole blood (human or mouse; see Example 1) in PBS (hematocrit: approximately 0.5%) were incubated with test compounds for 5 min and then subjected to a 250-mM inwardly directed gradient of urea. After an initial osmotic shrinking phase, the kinetics of increasing cell volume caused by urea influx were measured as the time-course of 90° scattered light intensity at 530 nm, with increasing cell volume resulting in reduced scattered light intensity. As a positive control, 0.7 mM phloretin was added to the RBC suspension prior to stopped-flow experiments. Measurements of water permeability were carried out similarly, with sucrose (cell-impermeant) used instead of urea to establish a 250-mM osmotic gradient. As a positive control, HgCl2 (0.3 mM) was added to the RBC suspension prior to stopped-flow measurements. Osmotic water permeability coefficients (Pf) were computed from light scattering data as described (van Hoek et al., J. Biol. Chem. 267:18267-69 (1992)).
This example describes chemical knock-out of UT-B by UT-B inhibitors in RBCs and the effect on UT-B-facilitated water transport. […] Osmotic water permeability was measured by stopped-flow light scattering in RBCs from wild-type and AQP1-null mice as shown in FIG. 8A. […] AQP1-null RBCs had greater than 5-fold reduced Pf compared to wild-type RBCs.

Experiment [2] has as its target T2, UT-B (Homo sapiens, UniProt Q13336).
T2 construct: the indicator cells are red blood cells that endogenously express the UT-B urea transporter; endogenous in cells; host or cells: human red blood cells (whole venous blood, single donor)
T2 sequence (Q13336 1-389): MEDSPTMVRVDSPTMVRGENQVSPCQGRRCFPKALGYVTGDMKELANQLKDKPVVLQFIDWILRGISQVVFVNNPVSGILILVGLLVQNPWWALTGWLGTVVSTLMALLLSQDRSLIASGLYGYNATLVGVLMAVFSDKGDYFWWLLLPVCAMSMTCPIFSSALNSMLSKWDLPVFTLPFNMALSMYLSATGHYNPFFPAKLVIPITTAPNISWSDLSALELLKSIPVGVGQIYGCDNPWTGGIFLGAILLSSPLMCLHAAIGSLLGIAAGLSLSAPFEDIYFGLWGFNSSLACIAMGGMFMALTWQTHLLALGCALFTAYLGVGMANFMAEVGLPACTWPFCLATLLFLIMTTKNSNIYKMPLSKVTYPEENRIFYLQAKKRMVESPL
As to the kind of experiment: Stopped-flow light scattering, urea permeability of human RBCs. It is filed as cell-based. The note with it: for inhibition of urea transport, inhibitor added only to urea-containing solution (sidedness): 0.1 μM ureainh-101, 0.2 μM ureainh-302, external exposure at time of mixing; for reversibility of inhibition after washing RBCs: 10 min pre-incubation, then wash. The method, then:
as §1, with “For measurement of urea permeability, dilutions of whole blood (human or mouse; see Example 1) in PBS (hematocrit: approximately 0.5%) were incubated with test compounds for 5 min and then subjected to a 250-mM inwardly directed gradient of urea.” left out
After repeating the 96-well plate RBC lysis assay to confirm compound activity (see Example 2), bona fide urea transport inhibition was determined by stopped-flow light scattering from the kinetics of urea influx (RBC swelling) in response to an inwardly directed urea gradient. Rapid mixing of an RBC suspension with a hyperosmolar solution containing excess 250 mM urea produced rapid cell shrinking due to osmotic water efflux, followed by cell swelling as urea (and water) influx occurred.
To determine EC50 values for urea transport inhibition directly, RBC urea transport was measured by stopped-flow light scattering using a non-saturating concentration of extracellular urea (to avoid possible competition effects). EC50 for inhibition of RBC urea transport was determined independently by comparing stopped-flow light scattering curves to a model of cell shrinking-swelling.
For stopped-flow experiments, a 100-mM gradient of urea (for human RBCs) or N-methylurea (for mouse RBCs) was used to minimize competition effects (apparent urea and N-methylurea affinities at 23° C. are approximately 200 and approximately 100 mM, respectively) (Mayrand et al., J. Gen. Physiol. 81:221-37 (1983)). N-methylurea, with greater than 2-fold slower RBC permeability than urea, was used in mouse studies to better resolve overlapping water and urea transport kinetics. Dose-response data were also collected for human RBCs using a high concentration of 1 M urea to distinguish between competitive vs. non-competitive inhibitor binding.
The two coupled differential equations describing water efflux and solute influx in response to externally added urea or methylurea were numerically integrated using the forward Euler method (Δt=0.01 s) to reproduce the biphasic changes in cell volume observed experimentally. Computations that were performed using the smaller time step (Δt=0.001 s) gave similar results, confirming the adequacy of the 0.01 s time step. Water flux, Jv (in cm^3/s), across erythrocyte membranes is represented by the following equation: Jv=−Pf·S·vw·[(Ie−Ic(i))+(Ue−Uc(i))]; solute flux, Js (in mol/s), is represented by the following equation: Ps·S·(Ue−Uc(i). Permeability coefficients (Pf and Ps) are expressed in units of cm/s, cell surface area (S) in cm^2, extracellular (e) and cellular (c) concentrations of impermeant (I) and urea/methylurea (U) solute in mol/cm^3, and vw is […]. Initial conditions were Ie=Ic(0)=2.9×10^−4 mol/cm^3, Ue=10^−4 mol/cm^3, and Uc(0)=0. For each time step, a new cell volume (normalized to the initial size; V(i+1)/V(0)) and a new cell permeant concentration (U(i+1)) were calculated from V(i+1)/V(0)=V(i)/V(0)−Δt·Pf·(S/V(0))·vw·[Ie(1−V(i)/V(0))+(Ue−Uc(i))] and Uc(i+1)=Uc(i)/V(0)−Δt·Us·(S/V(0))·vw·(Ue−Uc(i)). Normalized cell volume was assumed to be inversely proportional to scattered light intensity. The product of Pf and the surface area-to-volume ratio (S/V(0)) was determined to be 3.4×10^2 s^−1 and 8.5×10^2 s^−1 for human and mouse erythrocytes, respectively, from water permeability measurements. […]

For experiment [3], the target named is T2, UT-B. As to the kind of experiment: RBC lysis assay, human RBCs loaded with acetamide. It is filed as cell-based. The note with it: Table 5, phthalazinamines; UT-B inhibitory potency.
Another experiment deals with urea transporter (UT). To be noted: 23° C., RBC urea transport; cited from earlier work.

pEC50: −log10 of the molar value.

`NC(=O)CSc1oc(-c2ccccc2)nc1S(=O)(=O)c1ccc(Br)cc1` [ureainh-101, 2-(4-(4-bromophenylsulfonyl)-2-phenyloxazol-5-ylthio)acetamide]: the “effect on water permeability” value in experiment [1] is on record as “further inhibited”. The “effect on water transport” value in the experiment on RBCs from wild-type mice is on record as “little effect”. For the same molecule, at UT-B [2], the “inhibition of urea transport, inhibitor added only to urea-containing solution (sidedness)” value is given as “did not inhibit urea transport” and the “reversibility of inhibition after washing RBCs” value was “fully reversible inhibition”.
Regarding `Cc1ccc(Nc2nnc(-c3ccc(C(N)=O)cc3)c3ccccc23)cc1` [ureainh-302, 4-(4-(p-tolylamino)phthalazin-1-yl)benzamide], in experiment [1], the “effect on water permeability” value is given as “further inhibited”. Moreover, on UT-B [3], the pEC50 (usually the EC50 on a negative log10 scale, so that one unit is a factor of ten) was 6.70. In addition, the “effect on water transport” value in the experiment on RBCs from wild-type mice is on record as “little effect”. On UT-B [2], the “inhibition of urea transport, inhibitor added only to urea-containing solution (sidedness)” value was “sizable effect” and the “reversibility of inhibition after washing RBCs” value is “fully reversible inhibition”. Besides, the inhibition (as a rule, how much of the control response was suppressed) at 0.4 µM on UT-B [2] (0.1 μM ureainh-101, 0.4 μM ureainh-302, read-out: transport inhibition after 10 min pre-incubation) was over 95%.
As to `CNC(N)=O` [N-methylurea], in the experiment with urea transporter (UT), the apparent affinity result is “approximately 100 mM”.
Take `CC(N)=O` [Acetamide, reference compound]: on UT-B [2] (stopped-flow light scattering), the “share of transport in RBCs that is UT-B-dependent” value is “greater than 95%”.
For `NC(N)=O` [urea], the apparent affinity entry in the experiment with urea transporter (UT) is recorded as “approximately 200 mM”.

The values above are taken from patent publication US9316633B2, “Methods for identifying inhibitors of solute transporters” (The Regents of the University of California, priority 2006, dated 2016).
